Inconclusive results and toxic doses are left out.
System: L1210 leukemia ip in BDF1 mice, survival T/C
Test: NCI In Vivo Anticancer Drug Screen. Data for tumor model L1210 Leukemia (intraperitoneal) in B6D2F1 (BDF1) mice
Settings: endpoint: mean survival time, higher = longer survival
Outline: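 Mice bearing the transplanted tumor received compound or vehicle. Survival of the treated group was divided by that of the vehicle-treated control group to give the ratio.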

[1] = dose: 50.0 mg/kg/injection, schedule: Q04DX003 (ip), vehicle: saline with Tween-80
[2] = dose: 100.0 mg/kg/injection, schedule: Q04DX003 (ip), vehicle: saline with Tween-80

SMILES: CCOC(=O)c1ccc[n+](Cc2ccccc2)c1
- T/C (dose: 75.0 mg/kg/injection, schedule: Q01DX001 (ip), vehicle: saline): 101 % of control
- T/C (dose: 150.0 mg/kg/injection, schedule: Q01DX001 (ip), vehicle: saline): 106 % of control
- T/C (dose: 300.0 mg/kg/injection, schedule: Q01DX001 (ip), vehicle: saline): 98 % of control

SMILES: CN1CCCC1=Nc1ccc([N+](=O)[O-])cc1
- T/C (dose: 100.0 mg/kg/injection, schedule: Q01DX009 (ip), vehicle: Klucel (hydroxypropylcellulose) (HPC)): 104 % of control
- T/C (dose: 200.0 mg/kg/injection, schedule: Q01DX009 (ip), vehicle: Klucel (hydroxypropylcellulose) (HPC)): 108 % of control
- T/C (dose: 400.0 mg/kg/injection, schedule: Q01DX009 (ip), vehicle: Klucel (hydroxypropylcellulose) (HPC)): 102 % of control

SMILES: CN(C)N=Nc1ccc(C#N)cc1
- T/C (dose: 50.0 mg/kg/injection, schedule: Q01DX001 (ip), vehicle: saline with Tween-80): 105 % of control
- T/C (dose: 50.0 mg/kg/injection, schedule: Q01DX009 (ip), vehicle: saline with Tween-80): 96 % of control
- T/C [1]: 101 % of control
- T/C (dose: 100.0 mg/kg/injection, schedule: Q01DX001 (ip), vehicle: saline with Tween-80): 106 % of control
- T/C (dose: 100.0 mg/kg/injection, schedule: Q01DX009 (ip), vehicle: saline with Tween-80): 91 % of control
- T/C [2]: 105 % of control
- T/C (dose: 200.0 mg/kg/injection, schedule: Q01DX001 (ip), vehicle: saline with Tween-80): 118 % of control
- T/C (dose: 200.0 mg/kg/injection, schedule: Q01DX009 (ip), vehicle: saline with Tween-80): 100 % of control
- T/C (dose: 200.0 mg/kg/injection, schedule: Q04DX003 (ip), vehicle: saline with Tween-80): 97 % of control
- T/C (dose: 400.0 mg/kg/injection, schedule: Q01DX001 (ip), vehicle: saline with Tween-80): 122 % of control
- T/C (dose: 400.0 mg/kg/injection, schedule: Q01DX009 (ip), vehicle: saline with Tween-80): 102 % of control
- T/C (dose: 400.0 mg/kg/injection, schedule: Q04DX003 (ip), vehicle: saline with Tween-80): 108 % of control

SMILES: Cc1ccc(S(=O)(=O)N/N=c2\cc(C)c3ccccc3n2C)cc1
- T/C (dose: 100.0 mg/kg/injection, schedule: Q04DX003 (ip), vehicle: gum acacia): 95 % of control
- T/C (dose: 200.0 mg/kg/injection, schedule: Q04DX003 (ip), vehicle: gum acacia): 94 % of control
- T/C (dose: 400.0 mg/kg/injection, schedule: Q04DX003 (ip), vehicle: gum acacia): 93 % of control

SMILES: CN(C)C(C)(C)CC(C)(C)C
- T/C (dose: 25.0 mg/kg/injection, schedule: Q04DX003 (ip), vehicle: saline with Tween-80): 103 % of control
- T/C [1]: 106 % of control
- T/C [2]: 103 % of control

SMILES: CCN=C(N)Nc1ccc(NC(=O)c2ccc(C(=O)Nc3ccc(NC(N)=NCC)cc3)cc2)cc1
- T/C (dose: 0.12 mg/kg/injection, schedule: Q01DX Z (ip), vehicle: carboxymethylcellulose (CMC)): 101 % of control
- T/C (dose: 0.25 mg/kg/injection, schedule: Q01DX Z (ip), vehicle: carboxymethylcellulose (CMC)): 105 % of control
- T/C (dose: 1.0 mg/kg/injection, schedule: Q01DX Z (ip), vehicle: carboxymethylcellulose (CMC)): 154 % of control
- T/C (dose: 2.0 mg/kg/injection, schedule: Q01DX Z (ip), vehicle: carboxymethylcellulose (CMC)): 227 % of control
- T/C (dose: 3.0 mg/kg/injection, schedule: Q01DX Z (ip), vehicle: carboxymethylcellulose (CMC)): 261 % of control
- T/C (dose: 4.0 mg/kg/injection, schedule: Q01DX Z (ip), vehicle: carboxymethylcellulose (CMC)): 264 % of control
- T/C (dose: 6.0 mg/kg/injection, schedule: Q01DX Z (ip), vehicle: carboxymethylcellulose (CMC)): 198 % of control
- T/C (dose: 8.0 mg/kg/injection, schedule: Q01DX Z (ip), vehicle: carboxymethylcellulose (CMC)): 155 % of control
- T/C (dose: 11.0 mg/kg/injection, schedule: Q01DX001 (ip), vehicle: carboxymethylcellulose (CMC)): 122 % of control
- T/C (dose: 11.0 mg/kg/injection, schedule: Q01DX001 (ip), vehicle: other): 122 % of control
- T/C (dose: 16.0 mg/kg/injection, schedule: Q01DX Z (ip), vehicle: carboxymethylcellulose (CMC)): 121 % of control
- T/C (dose: 21.0 mg/kg/injection, schedule: Q01DX001 (ip), vehicle: carboxymethylcellulose (CMC)): 151 % of control
- T/C (dose: 21.0 mg/kg/injection, schedule: Q01DX001 (ip), vehicle: other): 155 % of control
- T/C (dose: 32.0 mg/kg/injection, schedule: Q01DX001 (ip), vehicle: carboxymethylcellulose (CMC)): 163 % of control
- T/C (dose: 32.0 mg/kg/injection, schedule: Q01DX001 (ip), vehicle: other): 164 % of control
- T/C (dose: 32.0 mg/kg/injection, schedule: Q01DX Z (ip), vehicle: carboxymethylcellulose (CMC)): 91 % of control
- T/C (dose: 48.0 mg/kg/injection, schedule: Q01DX001 (ip), vehicle: carboxymethylcellulose (CMC)): 209 % of control
- T/C (dose: 48.0 mg/kg/injection, schedule: Q01DX001 (ip), vehicle: other): 204 % of control
- T/C (dose: 50.0 mg/kg/injection, schedule: Q01DX Z (oral), vehicle: carboxymethylcellulose (CMC)): 118 % of control
- T/C (dose: 100.0 mg/kg/injection, schedule: Q01DX Z (oral), vehicle: carboxymethylcellulose (CMC)): 104 % of control
- T/C (dose: 200.0 mg/kg/injection, schedule: Q01DX Z (oral), vehicle: carboxymethylcellulose (CMC)): 96 % of control
- T/C (dose: 400.0 mg/kg/injection, schedule: Q01DX Z (oral), vehicle: carboxymethylcellulose (CMC)): 118 % of control

From PubChem BioAssay AID248 (DTP/NCI, 2004)
